SMILES strings stand for the structures. Where “and” joins values, the source holds several entries; their conditions need not be identical. Identical values can stand only once. Toxic doses and inconclusive results are not listed.

This is an account of results in PubChem BioAssay AID330 (DTP/NCI, 2004).

The subject of this test is P388 leukemia ip, CD2F1 mice, survival T/C. Nature of the test: NCI In Vivo Anticancer Drug Screen. Data for tumor model P388 Leukemia (intraperitoneal) in CD2F1 (CDF1) mice. To be noted: endpoint: median survival time, higher = longer survival. The essentials: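 Mice carrying the transplanted tumor received test compound or vehicle. Survival was recorded in each group, and the value is the treated-group measurement divided by that of the vehicle-treated control group.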

Setting [1] is: dose: 50.0 mg/kg/injection, schedule: Q01DX009 (ip), vehicle: saline with Tween-80.
[2] abbreviates: dose: 100.0 mg/kg/injection, schedule: Q01DX009 (ip), vehicle: saline with Tween-80.
[3] abbreviates: dose: 200.0 mg/kg/injection, schedule: Q01DX009 (ip), vehicle: saline with Tween-80.
Where [4] appears, read: dose: 1.56 mg/kg/injection, schedule: Q01DX009 (ip), vehicle: saline with Tween-80.
Setting [5] is: dose: 100.0 mg/kg/injection, schedule: Q04DX003 (ip), vehicle: saline with Tween-80.
Setting [6] is: dose: 200.0 mg/kg/injection, schedule: Q04DX003 (ip), vehicle: saline with Tween-80.
The mark [7] stands for this setting: dose: 12.5 mg/kg/injection, schedule: Q01DX005 (ip), vehicle: saline with Tween-80.
[8] abbreviates: dose: 25.0 mg/kg/injection, schedule: Q01DX005 (ip), vehicle: saline with Tween-80.
Setting [9] is: dose: 50.0 mg/kg/injection, schedule: Q01DX005 (ip), vehicle: saline with Tween-80.
Where [10] appears, read: dose: 100.0 mg/kg/injection, schedule: Q01DX005 (ip), vehicle: saline with Tween-80.
Where [11] appears, read: dose: 60.0 mg/kg/injection, schedule: Q01DX005 (ip), vehicle: saline with Tween-80.
Setting [12] is: dose: 12.5 mg/kg/injection, schedule: Q01DX009 (ip), vehicle: saline.
Setting [13] is: dose: 25.0 mg/kg/injection, schedule: Q01DX009 (ip), vehicle: saline.
Where [14] appears, read: dose: 50.0 mg/kg/injection, schedule: Q01DX009 (ip), vehicle: saline.
[15] abbreviates: dose: 200.0 mg/kg/injection, schedule: Q01DX005 (ip), vehicle: saline with Tween-80.

With `O=S1(=O)C(c2ccc(F)cc2)=C(O)c2cc3ccccc3nc21`, the T/C is, setting by setting: under setting [1], 112 % of control; under setting [2], 97 % of control.
As to `C/C1=C(O[Si](C)(C)C)/C(O[Si](C)(C)C)=C(/C)CCCC1`, the T/C runs as follows: under setting [1], 100 % of control; under setting [2], 94 % of control; under setting [3], 97 % of control.
With `CCCSc1ncnc2nc(C)[nH]c12`, the T/C runs as follows: (dose: 0.39 mg/kg/injection, schedule: Q01DX009 (ip), vehicle: saline with Tween-80) 95 % of control; (dose: 0.78 mg/kg/injection, schedule: Q01DX009 (ip), vehicle: saline with Tween-80) 92 % of control; under setting [4], 98 % of control; (dose: 3.13 mg/kg/injection, schedule: Q01DX009 (ip), vehicle: saline with Tween-80) 94 % of control.
In the case of `O=c1ccnc(Sc2ccc([N+](=O)[O-])cc2[N+](=O)[O-])[nH]1`, the T/C is 99 % of control under setting [5] and 99 % of control under setting [6].
In the case of `CC(=O)Nc1ccc(CC#N)cc1`, the T/C runs as follows: (dose: 5.0 mg/kg/injection, schedule: Q01DX009 (ip), vehicle: saline sonified) 100 % of control; (dose: 10.0 mg/kg/injection, schedule: Q01DX009 (ip), vehicle: saline sonified) 100 % of control; (dose: 20.0 mg/kg/injection, schedule: Q01DX009 (ip), vehicle: saline sonified) 113 % of control.
With `CCN(CC)c1nc(N(CC)CC)c2[nH]cnc2n1`, the T/C is 102 % of control under setting [7]; 100 % of control under setting [8]; 98 % of control and 105 % of control under setting [9]; 105 % of control under setting [10].
Take `CC(=O)OCc1c(-c2ccccc2)c(=O)c1=O`: the T/C by setting is: (dose: 15.0 mg/kg/injection, schedule: Q01DX005 (ip), vehicle: saline with Tween-80) 100 % of control; (dose: 30.0 mg/kg/injection, schedule: Q01DX005 (ip), vehicle: saline with Tween-80) 103 % of control; (dose: 60.0 mg/kg/injection, schedule: Q01DX005 (ip), vehicle: Klucel (hydroxypropylcellulose) (HPC)) 108 % of control; under setting [11], 106 % of control.
Consider `CCCCCCCCOCC(O)CN(CCO)CCO` (configuration not stated), for which the T/C under setting [12] is 107 % of control; the T/C under setting [13] is 92 % of control; the T/C under setting [14] was 94 % of control and 97 % of control.
`COc1cc(OC)c(NC(=O)NNC(=O)C(=O)NC2CC2)cc1Cl`: the T/C under setting [1] was 99 % of control, the T/C under setting [2] is 97 % of control and the T/C under setting [3] is 98 % of control.
Take `Cc1ccc2c(c1)C1(SCCC(=O)N1c1ccc(Cl)cc1)C(=O)N2` (configuration not stated): the T/C is, setting by setting: under setting [9], 103 % of control; under setting [10], 95 % of control; under setting [15], 100 % of control.
In the case of `O=C(O)c1ccccc1N=N/C(=N\Nc1ccccc1C(=O)O)c1ccnc2ccccc12`, the T/C was 100 % of control under setting [1], 97 % of control under setting [2] and 103 % of control under setting [3].
Turning to `Cn1c2ccccc2c2nnc(N/N=C/c3cccs3)nc21`, the T/C (dose: 400.0 mg/kg/injection, schedule: Q04DX002 (ip), vehicle: saline with Tween-80) is 105 % of control and 91 % of control.
`COc1ccc2c(c1)CC[C@@H]1[C@@H]2CC[C@]2(C)C(=O)/C(=C/C=C/N(C)C)C[C@@H]12`: the T/C by setting is: under setting [7], 90 % of control; under setting [8], 91 % of control; under setting [9], 87 % of control and 89 % of control.
Consider `CC12COC(=O)CC1CCC1C2CCC2(C)C1CCC2(C)O` (configuration not stated), for which the T/C runs as follows: under setting [5], 95 % of control; under setting [6], 104 % of control.
As for `Cc1cc(NCc2ccccc2)cc(=O)[nH]1`, the T/C runs as follows: (dose: 100.0 mg/kg/injection, schedule: Q01DX001 (ip), vehicle: saline with Tween-80) 95 % of control; (dose: 200.0 mg/kg/injection, schedule: Q01DX001 (ip), vehicle: saline with Tween-80) 89 % of control; (dose: 400.0 mg/kg/injection, schedule: Q01DX001 (ip), vehicle: saline with Tween-80) 87 % of control.
`Cc1nc([N+](=O)[O-])cn1-c1nc2ccccn2c1[N+](=O)[O-]`: the T/C (dose: 50.0 mg/kg/injection, schedule: Q01DX009 (ip), vehicle: Klucel (hydroxypropylcellulose) (HPC)) is 92 % of control; the T/C (dose: 100.0 mg/kg/injection, schedule: Q01DX009 (ip), vehicle: Klucel (hydroxypropylcellulose) (HPC)) was 94 % of control; the T/C (dose: 200.0 mg/kg/injection, schedule: Q01DX009 (ip), vehicle: Klucel (hydroxypropylcellulose) (HPC)) was 91 % of control.
`O=Cc1c(-c2ccc(-c3ccccc3)cc2)nc2sccn12`: the T/C (dose: 100.0 mg/kg/injection, schedule: Q01DX001 (ip), vehicle: Klucel (hydroxypropylcellulose) (HPC)) is 86 % of control; the T/C (dose: 200.0 mg/kg/injection, schedule: Q01DX001 (ip), vehicle: Klucel (hydroxypropylcellulose) (HPC)) was 89 % of control; the T/C (dose: 400.0 mg/kg/injection, schedule: Q01DX001 (ip), vehicle: Klucel (hydroxypropylcellulose) (HPC)) was 89 % of control.
As to `CC12CC(=O)CC1(C)CC(=O)C2` (configuration not stated), the T/C was 92 % of control under setting [12]; 92 % of control under setting [13]; 86 % of control and 97 % of control under setting [14].
As to `O=C(NCCCCCCCCCCNC(=O)N1CC1)N1CC1`, the T/C is, setting by setting: (dose: 0.25 mg/kg/injection, schedule: Q04DX003 (ip), vehicle: saline with Tween-80) 104 % of control; (dose: 0.5 mg/kg/injection, schedule: Q04DX003 (ip), vehicle: saline with Tween-80) 108 % of control; under setting [4], 165 % of control; (dose: 2.0 mg/kg/injection, schedule: Q04DX003 (ip), vehicle: saline with Tween-80) 159 % of control; (dose: 3.0 mg/kg/injection, schedule: Q04DX003 (ip), vehicle: saline with Tween-80) 209 % of control; (dose: 3.13 mg/kg/injection, schedule: Q04DX003 (ip), vehicle: saline with Tween-80) 185 % of control. The T/C is 204 % of control (dose: 4.5 mg/kg/injection, schedule: Q04DX003 (ip), vehicle: saline with Tween-80); 95 % of control (dose: 6.25 mg/kg/injection, schedule: Q01DX009 (ip), vehicle: saline with Tween-80); 150 % of control (dose: 6.25 mg/kg/injection, schedule: Q04DX003 (ip), vehicle: saline with Tween-80).
With `CCOC(=O)C1=C(C)NC(C)=C(C(=O)OCC)C1c1ccc(OC)c(OC)c1`, the T/C by setting is: (dose: 25.0 mg/kg/injection, schedule: Q01DX009 (ip), vehicle: other) 106 % of control; (dose: 50.0 mg/kg/injection, schedule: Q01DX009 (ip), vehicle: other) 103 % of control; (dose: 100.0 mg/kg/injection, schedule: Q01DX009 (ip), vehicle: other) 97 % of control; (dose: 200.0 mg/kg/injection, schedule: Q01DX009 (ip), vehicle: other) 97 % of control; (dose: 400.0 mg/kg/injection, schedule: Q01DX009 (ip), vehicle: other) 88 % of control.
In the case of `O=C1C=C2c3ccccc3CC(C(=O)O)C2CC1` (configuration not stated), the T/C reads like this: under setting [11], 100 % of control; (dose: 120.0 mg/kg/injection, schedule: Q01DX005 (ip), vehicle: saline with Tween-80) 100 % of control; (dose: 240.0 mg/kg/injection, schedule: Q01DX005 (ip), vehicle: saline with Tween-80) 102 % of control.
`O=C(c1ccccc1)C(Cl)C(Cl)c1ccccc1` (configuration not stated): the T/C under setting [8] was 102 % of control, the T/C under setting [9] was 105 % of control, the T/C under setting [10] is 101 % of control and the T/C under setting [15] was 100 % of control.
As to `OC(COc1c2ccccc2nc2ccccc12)CN1CCN(c2ccccc2)CC1` (configuration not stated), the T/C was 94 % of control under setting [9] and 90 % of control under setting [10].
In the case of `CC(=O)OCC1OC(n2nc(-c3ccccc3)c(=O)n(-c3ccccc3)c2=O)C(OC(C)=O)C(OC(C)=O)C1OC(C)=O` (configuration not stated), the T/C was 110 % of control under setting [5] and 111 % of control under setting [6].
